Biological target: T1, FAAH (Homo sapiens, UniProt O00519)
T1 construct: endogenous in cells
T1 sequence (O00519 1-579): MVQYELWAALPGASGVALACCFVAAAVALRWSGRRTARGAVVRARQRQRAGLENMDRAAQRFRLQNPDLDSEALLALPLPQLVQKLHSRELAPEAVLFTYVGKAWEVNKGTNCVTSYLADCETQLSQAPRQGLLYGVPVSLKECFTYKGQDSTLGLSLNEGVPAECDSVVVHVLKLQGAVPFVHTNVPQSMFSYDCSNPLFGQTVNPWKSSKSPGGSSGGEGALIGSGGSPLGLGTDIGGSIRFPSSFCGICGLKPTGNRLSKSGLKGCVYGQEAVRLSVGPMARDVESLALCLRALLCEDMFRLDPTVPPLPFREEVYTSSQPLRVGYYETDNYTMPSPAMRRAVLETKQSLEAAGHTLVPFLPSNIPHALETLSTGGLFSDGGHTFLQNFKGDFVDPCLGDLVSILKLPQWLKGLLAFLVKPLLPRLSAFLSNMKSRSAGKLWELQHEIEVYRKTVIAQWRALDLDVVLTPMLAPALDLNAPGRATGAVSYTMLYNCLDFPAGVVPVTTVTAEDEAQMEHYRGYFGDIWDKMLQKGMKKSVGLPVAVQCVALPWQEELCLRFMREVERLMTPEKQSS
Assay: sADPL in situ target engagement in cancer cells, FAAH
Type: cell-based
Details: inhibitor prior to family-wide probe
Description: FIG. 23. In situ Target Engagement. Cancer cells were treated with DMSO as the control, with inhibitor prior to family wide probe to pre-block the active site, or with family-wide probe directly. Then sADPL workflow was applied to read out the CT difference. Serine hydrolase NCEH1 and its specific inhibitor JW480, or FAAH and inhibitor PF3845 were applied. The activity fold change was transformed from CT value with PCR amplification factor 1.91 determined by a standard qPCR curve and the activities were normalized to DMSO control at different cell lysate concentrations. […] To quantitatively measure the target engagement, different dose of JW480 was applied to either its target NCEH1, or off-target MGLL.
As another alternative detection method, sADPL is complementary with gel-based and MS-based detection methods. In this design, the inventors treat the live cell with several family-wide probes. The probes will label all the members of the protein families. Then one could get the labeled proteome after the cell lysis. […]
A summary of this assay is provided below: • 1. […] In the oligo design, the orthogonal forward primers were employed for different antibody to enable the multiplexing real time PCR readout. […]
Two amine modified oligos were conjugated to antibody and streptavidin, respectively. […] A Taqman probe was designed for real time PCR quantification. […]

O=C(Nc1cccnc1)N1CCC(Cc2cccc(Oc3ccc(C(F)(F)F)cn3)c2)CC1 [PF3845]
FAAH activity in inhibitor competition group by sADPL, normalized to DMSO control: bring the activities down to the levels of DMSO controls

Reference: patent US12276654B2, “Chemical probe-dependent evaluation of protein activity and uses thereof” (The University of Chicago, priority 2017, dated 2025)
